We go through 38 molecules from patent publication US20230286946A1, “DIFLUOROMETHYL-PYRIDIN-2-YL TRIAZOLES” (Boehringer Ingelheim International GmbH, priority 2020, published 2023).

The target in this assay is T1, α5ß2 γ2 GABAA Receptor (Homo sapiens, UniProt P18507+P31644).
T1 sequence (P31644 32-462): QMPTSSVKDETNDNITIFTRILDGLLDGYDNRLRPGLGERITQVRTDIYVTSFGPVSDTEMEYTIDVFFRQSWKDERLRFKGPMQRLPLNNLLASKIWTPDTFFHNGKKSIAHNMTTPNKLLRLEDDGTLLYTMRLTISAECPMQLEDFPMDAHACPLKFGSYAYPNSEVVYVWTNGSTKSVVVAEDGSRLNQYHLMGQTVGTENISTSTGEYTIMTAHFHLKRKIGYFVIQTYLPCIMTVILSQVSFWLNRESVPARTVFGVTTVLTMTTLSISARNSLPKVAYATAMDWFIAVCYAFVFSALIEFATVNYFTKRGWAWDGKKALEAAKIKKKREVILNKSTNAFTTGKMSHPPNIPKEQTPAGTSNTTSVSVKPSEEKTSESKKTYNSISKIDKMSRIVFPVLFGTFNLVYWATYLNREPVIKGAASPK
T1 sequence (P18507 40-376 limits assumed): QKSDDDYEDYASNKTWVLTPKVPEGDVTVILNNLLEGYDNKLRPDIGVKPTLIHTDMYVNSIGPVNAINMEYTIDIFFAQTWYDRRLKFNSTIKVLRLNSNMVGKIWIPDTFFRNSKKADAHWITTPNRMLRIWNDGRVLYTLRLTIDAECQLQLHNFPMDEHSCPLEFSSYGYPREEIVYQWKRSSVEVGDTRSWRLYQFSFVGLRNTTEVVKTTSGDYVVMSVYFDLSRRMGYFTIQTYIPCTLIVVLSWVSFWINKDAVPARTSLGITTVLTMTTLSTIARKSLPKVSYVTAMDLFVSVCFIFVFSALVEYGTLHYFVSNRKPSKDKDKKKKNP
In words: Assay B: in vitro evaluation of modulation of α5ß2γ2 GABAA receptor, two-electrode voltage clamp in oocytes. As to conditions: for EC50: co-application with 0.5 μM GABA, oocytes, read-out: Assay B: GABAA α 5 β 3 γ 2 EC50. Type of assay: cell-based. Here is the method: Assay B: In Vitro Evaluation of Modulation of α5ß2 γ2 GABAA Receptor.
Modulatory efficacy of compounds of formular (I) is determined electrophysiological recordings in oocytes using the two-electrode voltage clamp (TEVC) technique. Oocytes are injected with cRNA for human GABAA receptor subunits α5, ß2 and γ2 in a 3:1:3 ratio and modulatory efficacy is evaluated by co-applications with a submaximal EC5-20 GABA concentration (0.5 μM) termed GABA control. As a standard, the compounds are tested in five concentrations (3.16, 0.316, 0.0316, 0.00316 and 0.000316 μM) on each oocyte starting with the lowest concentration. Background subtracted peak current amplitudes are normalized to the respective GABAcontrol current, converted to % change and depicted +/−S.E.M. as a function of increasing compound concentrations. Plotted datapoints are fitted to the empirical Hill equation using non-linear regression. 95% confidence intervals for maximal efficacy (Bottom) and potency (Log EC50) are derived from this fitting routine.
In general terms: Two-electrode voltage clamp holds a large cell at a set potential and records current.

As a reminder, the EC50 is the concentration at which the effect is half-maximal. `Cc1nnn(-c2ccc(C(F)F)cn2)c1COc1ccc(-c2ccc(=O)n(C)c2)nn1` [Example 1, 5-[6-({1-[5-(difluoromethyl)pyridin-2-yl]-4-methyl-1H-1,2,3-triazol-5-yl}methoxy)pyridazin-3-yl]-1-methyl-1,2-dihydropyridin-2-one]: the Assay B: GABAA α 5 β 3 γ 2 Emax vs GABA was -24.9% and the EC50 worked out at 41.3 nM.
In the case of `Cc1nnn(-c2ccc(C(F)F)cn2)c1COc1ccc(-c2cnc(N)nc2)nn1` [Example 2], the Assay B: GABAA α 5 β 3 γ 2 Emax vs GABA was -25.3% and the EC50 worked out at 92.5 nM.
On to `Cc1cc(-c2ccc(OCc3c(C)nnn3-c3ccc(C(F)F)cn3)nn2)cnn1` [Example 3], for which the Assay B: GABAA α 5 β 3 γ 2 Emax vs GABA is -24.7% and the EC50 was found to be 6.6 nM.
Consider `Cc1nnn(-c2ccc(C(F)F)cn2)c1COc1ccc(-c2cn[nH]c2)nn1` [Example 4], for which the Assay B: GABAA α 5 β 3 γ 2 Emax vs GABA is -22.3% and the EC50 was found to be 93 nM.
On the same counts, the results for `Cc1nnn(-c2ccc(C(F)F)cn2)c1COc1ccc(-c2cc[nH]n2)nn1` [Example 5] are -32.3% and 11.6 nM.
As to `Cc1nnn(-c2ccc(C(F)F)cn2)c1COc1ccc(-c2cccc(C(N)=O)c2)nn1` [Example 6], the Assay B: GABAA α 5 β 3 γ 2 Emax vs GABA is -8.8% and the EC50 came out at 13.9 nM.
The matching figures for `Cc1nnn(-c2ccc(C(F)F)cn2)c1COc1ccc(-c2cnn(CC#N)c2)nn1` [Example 7]: -6.3% and 12.7 nM.
Consider `Cc1nnn(-c2ccc(C(F)F)cn2)c1COc1ccc(-c2ccc(C#N)nc2)nn1` [Example 8], for which the Assay B: GABAA α 5 β 3 γ 2 Emax vs GABA came out at 2.7%.
Consider `Cc1nnn(-c2ccc(C(F)F)cn2)c1COc1ccc(-c2ccc(C#N)s2)nn1` [Example 12], for which the Assay B: GABAA α 5 β 3 γ 2 Emax vs GABA was -12.3% and the EC50 stood at 147 nM.
In the case of `CNc1cccc(-c2ccc(OCc3c(C)nnn3-c3ccc(C(F)F)cn3)nn2)n1` [Example 14], the Assay B: GABAA α 5 β 3 γ 2 Emax vs GABA was -21% and the EC50 turned out to be 89 nM.
As to `Cc1n[nH]c(C)c1-c1ccc(OCc2c(C)nnn2-c2ccc(C(F)F)cn2)nn1` [Example 15], the Assay B: GABAA α 5 β 3 γ 2 Emax vs GABA was -24.7% and the EC50 came out at 34.7 nM.
The matching figures for `Cc1nnn(-c2ccc(C(F)F)cn2)c1COc1ccc(-c2ccc(S(C)(=O)=O)nc2)nn1` [Example 16]: -20.3% and 85.9 nM.
Regarding `Cc1nnn(-c2ccc(C(F)F)cn2)c1COc1ccc(-c2ccnnc2)nn1` [Example 17], the Assay B: GABAA α 5 β 3 γ 2 Emax vs GABA is -33.2% and the EC50 amounted to 1 nM.
On the same counts, the results for `Cc1ncc(-c2ccc(OCc3c(C)nnn3-c3ccc(C(F)F)cn3)nn2)o1` [Example 18] are -28.7% and 23.3 nM.
With `Cc1nnn(-c2ccc(C(F)F)cn2)c1COc1ccc(-c2ccc(N)nc2)nn1` [Example 19], the Assay B: GABAA α 5 β 3 γ 2 Emax vs GABA was -28.5% and the EC50 came to 64 nM.
On the same counts, the results for `Cc1nnn(-c2ccc(C(F)F)cn2)c1COc1ccc(-c2c[nH]c(=O)c(F)c2)nn1` [Example 20] are -32.3% and 11.6 nM.
On the same counts, the results for `CCn1cc(-c2ccc(OCc3c(-c4ccc(C(F)F)cn4)nnn3C)nn2)cn1` [Example 22] are -14.9% and 26.9 nM.
The matching figures for `Cn1nnc(-c2ccc(C(F)F)cn2)c1COc1ccc(-c2ccc(S(C)(=O)=O)nc2)nn1` [Example 23]: -8% and 3.1 nM.
As to `Cn1nnc(-c2ccc(C(F)F)cn2)c1COc1ccc(-c2cn[nH]c2)nn1` [Example 24], the Assay B: GABAA α 5 β 3 γ 2 Emax vs GABA was -14.7% and the EC50 came to 9.8 nM.
Regarding `Cn1nnc(-c2ccc(C(F)F)cn2)c1COc1ccc(-c2ccc(N)nc2)nn1` [Example 25], the Assay B: GABAA α 5 β 3 γ 2 Emax vs GABA is -11% and the EC50 turned out to be 8.2 nM.
For the molecule `Cn1nnc(-c2ccc(C(F)F)cn2)c1COc1ccc(-c2cccc(C(N)=O)c2)nn1` [Example 28], the Assay B: GABAA α 5 β 3 γ 2 Emax vs GABA is -20% and the EC50 was found to be 14.6 nM.
For `Cc1c(-c2ccc(OCc3c(-c4ccc(C(F)F)cn4)nnn3C)nn2)cc(C#N)n1C` [Example 29], the Assay B: GABAA α 5 β 3 γ 2 Emax vs GABA is -29% and the EC50 came out at 11.5 nM.
The matching figures for `Cc1nn(C)cc1-c1ccc(OCc2c(-c3ccc(C(F)F)cn3)nnn2C)nn1` [Example 30]: -4.7% and 4.6 nM.
On the same counts, the results for `COc1ncc(-c2ccc(OCc3c(-c4ccc(C(F)F)cn4)nnn3C)nn2)cn1` [Example 31] are -12.3% and 20 nM.
Turning to `Cn1nnc(-c2ccc(C(F)F)cn2)c1COc1ccc(-c2cnn(C3CCC3)c2)nn1` [Example 32], the Assay B: GABAA α 5 β 3 γ 2 Emax vs GABA was -3.3%.
In the case of `Cc1c(-c2ccc(OCc3c(-c4ccc(C(F)F)cn4)nnn3C)nn2)cnn1C` [Example 33], the Assay B: GABAA α 5 β 3 γ 2 Emax vs GABA is -21% and the EC50 came to 29.5 nM.
For the molecule `Cn1nnc(-c2ccc(C(F)F)cn2)c1COc1ccc(-c2cnc3nonc3c2)nn1` [Example 35], the Assay B: GABAA α 5 β 3 γ 2 Emax vs GABA is -9.6% and the EC50 was 63 nM.
On to `Cc1nnn(-c2ccc(C(F)F)cn2)c1COc1ccc(-n2cc(C#N)cn2)nn1` [Example 37], for which the Assay B: GABAA α 5 β 3 γ 2 Emax vs GABA was -25.3% and the EC50 came out at 37.3 nM.
Turning to `Cc1nnn(-c2ccc(C(F)F)cn2)c1COc1ccc(-n2ncnc2C)nn1` [Example 38], the Assay B: GABAA α 5 β 3 γ 2 Emax vs GABA is -22.5% and the EC50 was 22.8 nM.
On to `Cn1nnc(-c2ccc(C(F)F)cn2)c1COc1ccc(-c2cnccn2)nn1` [Example 39], for which the Assay B: GABAA α 5 β 3 γ 2 Emax vs GABA was -24.6% and the EC50 stood at 354 nM.
For the molecule `Cc1nnn(-c2ccc(C(F)F)cn2)c1COc1ccc(-n2cnc(C#N)c2)nn1` [Example 42, 1-[6-({1-[5-(difluoromethyl)pyridin-2-yl]-4-methyl-1H-1,2,3-triazol-5-yl}methoxy)pyridazin-3-yl]-1H-imidazole-4-carbonitrile], the Assay B: GABAA α 5 β 3 γ 2 Emax vs GABA was -25% and the EC50 stood at 15.8 nM.
The matching figures for `Cc1nnn(-c2ccc(C(F)F)cn2)c1COc1ccc(-n2nccn2)nn1` [Example 43]: -20.2% and 24.8 nM.
For `Cc1ncnn1-c1ccc(OCc2c(-c3ccc(C(F)F)cn3)nnn2C)nn1` [Example 48, 3-({4-[5-(difluoromethyl)pyridin-2-yl]-1-methyl-1H-1,2,3-triazol-5-yl}methoxy)-6-(5-methyl-1H-1,2,4-triazol-1-yl)pyridazine], the Assay B: GABAA α 5 β 3 γ 2 Emax vs GABA is -13.2% and the EC50 was determined as 78.9 nM.
For the molecule `Cn1nnc(-c2ccc(C(F)F)cn2)c1COc1ccc(-n2cc(C#N)cn2)nn1` [Example 49], the Assay B: GABAA α 5 β 3 γ 2 Emax vs GABA is 5.7%.
`Cn1nnc(-c2ccc(C(F)F)cn2)c1COc1ccc(-n2cccn2)nn1` [Example 50]: the Assay B: GABAA α 5 β 3 γ 2 Emax vs GABA is -13.7% and the EC50 came to 12 nM.
`Cn1nnc(-c2ccc(C(F)F)cn2)c1COc1ccc(-n2cnc(C#N)c2)nn1` [Example 52]: the Assay B: GABAA α 5 β 3 γ 2 Emax vs GABA was -16% and the EC50 stood at 2 nM.
For the molecule `Cn1nnc(-c2ccc(C(F)F)cn2)c1COc1ccc(-n2ccc(C#N)n2)nn1` [Example 53], the EC50 was 3.9 nM.
As for `Cc1nnn(-c2ccc(C(F)F)cn2)c1COc1ccc(-c2cnccn2)nn1` [Example 56, 3-({1-[5-(difluoromethyl)pyridin-2-yl]-4-methyl-1H-1,2,3-triazol-5-yl}methoxy)-6-(pyrazin-2-yl)pyridazine], the Assay B: GABAA α 5 β 3 γ 2 Emax vs GABA is -17.7% and the EC50 turned out to be 14.5 nM.
